The record followed here is patent publication US8344153B2, “Inhibitors of phosphatidylinositol 3-kinase” (Vertex Pharmaceuticals Incorporated, priority 2009, dated 2013).

For the experiment, the target named is PI3K-γ (Homo sapiens, UniProt P48736). Nature of the experiment: PI3K Inhibition Assay (33P-ATP, PI(4,5)P2 substrate, filter plate scintillation counting). Type of experiment: biochemical. Particulars: competitive tight binding Ki fit; 3 μM ATP, 30 μM PI(4,5)P2, 2 nM final enzyme, 30 min at 25° C.; read-out: Ki for the inhibition of PI3Ky. As to the method: One test well also contained 1.5 μL of DMSO with no compound. […] To initiate the reaction, 50 μL of ATP Mix [20 mM MgCl2, 6 μM ATP (100 μCi/μmole ^33P-ATP)] was added each well, followed by incubating the wells for 30 min. at 25° C. Final concentrations in each well were 50 mM HEPES 7.5, 10 mM MgCl2, 25 mM NaCl, 5 mM DTT, 0.1 mg/mL BSA, 30 μM PI(4,5)P2, 3 μM ATP, and the PI3K isoform of interest (see Table 3). Final compound concentrations in each well ranged from 10 μM to 1 nM.
Chain of PI3K-γ (P48736 whole entry, species assumed, canonical isoform): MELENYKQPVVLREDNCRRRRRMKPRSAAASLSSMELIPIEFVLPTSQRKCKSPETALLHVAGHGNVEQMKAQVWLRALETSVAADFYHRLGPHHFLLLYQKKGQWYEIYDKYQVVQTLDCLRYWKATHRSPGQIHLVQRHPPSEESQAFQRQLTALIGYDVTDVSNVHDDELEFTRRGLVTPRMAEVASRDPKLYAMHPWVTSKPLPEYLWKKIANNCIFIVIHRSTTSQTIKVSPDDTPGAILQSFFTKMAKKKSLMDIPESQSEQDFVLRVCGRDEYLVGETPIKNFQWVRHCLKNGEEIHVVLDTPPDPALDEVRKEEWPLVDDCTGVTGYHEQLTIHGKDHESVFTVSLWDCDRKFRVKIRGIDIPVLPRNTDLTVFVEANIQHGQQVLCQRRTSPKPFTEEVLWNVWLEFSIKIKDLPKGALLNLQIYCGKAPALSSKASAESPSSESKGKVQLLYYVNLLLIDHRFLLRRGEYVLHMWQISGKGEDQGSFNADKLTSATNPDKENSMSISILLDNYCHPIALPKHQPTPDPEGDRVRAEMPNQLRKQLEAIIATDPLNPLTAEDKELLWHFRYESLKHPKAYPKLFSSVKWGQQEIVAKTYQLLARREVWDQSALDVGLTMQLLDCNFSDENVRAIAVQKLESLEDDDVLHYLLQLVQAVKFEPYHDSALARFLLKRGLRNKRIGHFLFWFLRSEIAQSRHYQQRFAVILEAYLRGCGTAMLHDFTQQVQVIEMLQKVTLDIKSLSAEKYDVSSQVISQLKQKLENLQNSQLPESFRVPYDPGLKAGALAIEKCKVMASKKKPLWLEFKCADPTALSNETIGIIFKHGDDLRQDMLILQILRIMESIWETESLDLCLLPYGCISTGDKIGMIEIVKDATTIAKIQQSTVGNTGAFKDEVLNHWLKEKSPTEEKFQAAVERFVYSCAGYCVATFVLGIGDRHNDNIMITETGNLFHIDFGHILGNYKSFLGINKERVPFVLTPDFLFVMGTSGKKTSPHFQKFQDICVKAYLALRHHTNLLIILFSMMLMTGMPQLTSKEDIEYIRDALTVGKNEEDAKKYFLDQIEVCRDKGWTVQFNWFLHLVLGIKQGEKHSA
After incubation, the reactions in each well were quenched by addition of 50 μL of stop solution [30% TCA/Water, 10 mM ATP]. […] 50 μL of scintillation fluid was added to each well and the plate read on a Perkin-Elmer TopCount™ NXT liquid scintillation counter to obtain ^33P-counts representing inhibition values.

With `CCOCCNC(=O)Nc1nc(C)c(C#Cc2ccncc2)s1` [Compound 26], the Ki is less than 50 nM.

In general, Ki refers to the equilibrium dissociation constant of an inhibitor or competing ligand from its target.
